Test results: BindingDB's records for doi:10.1021/acschembio.7b00543 (University of Delaware, 2017)
pIC50: −log10 of the molar value.

How the values were obtained:
Assay in all cases: Fluorometric Ub-AMC Hydrolysis Assay
Conditions in all cases: pH 7.5; 25 °C
[1] = biological target: T1, Ubiquitin carboxyl-terminal hydrolase isozyme L5 (Homo sapiens, UniProt Q9Y5K5)
T1 sequence (Q9Y5K5 whole entry): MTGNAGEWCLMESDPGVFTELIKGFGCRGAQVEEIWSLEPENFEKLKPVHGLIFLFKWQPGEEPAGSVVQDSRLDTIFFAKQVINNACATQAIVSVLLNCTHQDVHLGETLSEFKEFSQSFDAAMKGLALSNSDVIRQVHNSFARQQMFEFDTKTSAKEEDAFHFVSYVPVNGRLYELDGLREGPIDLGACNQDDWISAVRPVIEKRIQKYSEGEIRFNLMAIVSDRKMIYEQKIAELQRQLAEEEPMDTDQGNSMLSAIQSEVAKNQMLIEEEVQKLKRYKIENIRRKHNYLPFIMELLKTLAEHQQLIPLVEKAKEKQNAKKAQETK
Procedure: (§1) 2 nM UCHL1, UCHL5, USP15, USP2, or 2 pM UCHL3 were incubated with increasing concentrations of inhibitor in assay buffer for 5 min at room temperature. To initiate the reaction, 1 uM Ub-AMC was added and the fluorescence signal was detected for 60 s with a 380 nm excitation and 460 nm emission filter set.

[2] = biological target: T2, Ubiquitin carboxyl-terminal hydrolase 2 (Homo sapiens, UniProt O75604)
T2 sequence (O75604 whole entry): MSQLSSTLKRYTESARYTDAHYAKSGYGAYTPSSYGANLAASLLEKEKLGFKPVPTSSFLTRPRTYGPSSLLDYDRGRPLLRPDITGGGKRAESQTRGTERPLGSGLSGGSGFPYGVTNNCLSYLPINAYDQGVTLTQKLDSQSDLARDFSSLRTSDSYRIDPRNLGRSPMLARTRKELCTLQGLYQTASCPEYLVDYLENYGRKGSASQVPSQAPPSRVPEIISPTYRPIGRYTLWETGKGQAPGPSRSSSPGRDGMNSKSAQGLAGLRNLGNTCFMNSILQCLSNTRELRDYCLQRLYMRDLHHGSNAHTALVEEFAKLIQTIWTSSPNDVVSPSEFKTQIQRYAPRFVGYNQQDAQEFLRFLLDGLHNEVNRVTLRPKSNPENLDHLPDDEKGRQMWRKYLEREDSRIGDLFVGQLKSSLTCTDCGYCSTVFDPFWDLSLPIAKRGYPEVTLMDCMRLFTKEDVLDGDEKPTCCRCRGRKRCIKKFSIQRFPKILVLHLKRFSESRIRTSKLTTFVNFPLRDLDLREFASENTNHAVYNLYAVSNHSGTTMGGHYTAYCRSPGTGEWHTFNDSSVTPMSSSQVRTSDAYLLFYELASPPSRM
Procedure: as §1

[3] = biological target: T3, Ubiquitin carboxyl-terminal hydrolase isozyme L3 (Homo sapiens, UniProt P15374)
T3 sequence (P15374 whole entry): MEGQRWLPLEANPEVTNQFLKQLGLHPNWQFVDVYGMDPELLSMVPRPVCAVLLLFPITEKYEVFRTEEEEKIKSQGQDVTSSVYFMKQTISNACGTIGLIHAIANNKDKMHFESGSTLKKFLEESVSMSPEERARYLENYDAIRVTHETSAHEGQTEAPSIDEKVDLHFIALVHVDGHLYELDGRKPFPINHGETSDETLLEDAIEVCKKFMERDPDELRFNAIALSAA
Procedure: as §1

[4] = biological target: T4, Ubiquitin carboxyl-terminal hydrolase isozyme L1 (Homo sapiens, UniProt P09936)
T4 sequence (P09936 whole entry): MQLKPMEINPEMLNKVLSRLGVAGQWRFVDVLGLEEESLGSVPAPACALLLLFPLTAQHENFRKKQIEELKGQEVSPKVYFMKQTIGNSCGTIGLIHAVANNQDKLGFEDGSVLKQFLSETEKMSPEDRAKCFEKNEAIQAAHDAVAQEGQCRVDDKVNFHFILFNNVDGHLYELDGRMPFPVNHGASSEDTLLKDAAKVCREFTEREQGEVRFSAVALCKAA
Procedure: as §1

[5] = biological target: T5, Ubiquitin carboxyl-terminal hydrolase 15 (Homo sapiens, UniProt Q9Y4E8)
T5 sequence (Q9Y4E8 whole entry): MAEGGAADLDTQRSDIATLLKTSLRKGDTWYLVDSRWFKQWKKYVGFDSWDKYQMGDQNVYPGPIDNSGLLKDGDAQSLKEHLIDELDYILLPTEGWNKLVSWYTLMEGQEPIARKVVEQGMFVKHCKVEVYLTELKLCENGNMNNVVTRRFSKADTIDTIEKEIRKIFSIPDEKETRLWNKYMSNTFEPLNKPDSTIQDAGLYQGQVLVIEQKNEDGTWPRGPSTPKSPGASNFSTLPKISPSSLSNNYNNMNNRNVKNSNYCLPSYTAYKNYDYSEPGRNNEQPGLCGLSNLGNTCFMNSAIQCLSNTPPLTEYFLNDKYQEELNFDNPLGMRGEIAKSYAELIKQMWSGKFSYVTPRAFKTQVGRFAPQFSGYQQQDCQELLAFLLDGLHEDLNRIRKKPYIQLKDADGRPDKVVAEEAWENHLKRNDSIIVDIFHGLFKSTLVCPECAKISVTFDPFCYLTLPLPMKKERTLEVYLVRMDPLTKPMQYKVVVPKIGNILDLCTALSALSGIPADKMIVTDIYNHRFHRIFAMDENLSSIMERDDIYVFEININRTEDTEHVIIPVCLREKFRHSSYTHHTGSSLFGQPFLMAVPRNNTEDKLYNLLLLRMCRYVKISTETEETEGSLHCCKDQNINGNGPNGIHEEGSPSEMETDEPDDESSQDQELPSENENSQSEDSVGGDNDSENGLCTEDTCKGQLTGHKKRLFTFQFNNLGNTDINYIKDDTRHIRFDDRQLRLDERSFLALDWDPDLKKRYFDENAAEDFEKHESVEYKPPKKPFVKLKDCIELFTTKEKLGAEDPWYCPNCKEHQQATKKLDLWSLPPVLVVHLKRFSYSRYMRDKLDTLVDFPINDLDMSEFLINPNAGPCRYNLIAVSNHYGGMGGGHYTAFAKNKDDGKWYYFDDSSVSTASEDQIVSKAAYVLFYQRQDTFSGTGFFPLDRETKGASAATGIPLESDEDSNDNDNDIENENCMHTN
Procedure: as §1

Structure (SMILES): Cc1cnc(-c2ccccc2C(C)C)nc1NCc1ccc(-n2ccnn2)cc1
- pIC50 [1]: < 3.94
- pIC50 [2]: < 3.94
- pIC50 [3]: < 3.94

Structure (SMILES): CC1=C(O)C(=O)C=C2C1=CC=C1[C@@]2(C)CC[C@@]2(C)[C@@H]3C[C@](C)(C(=O)O)CC[C@]3(C)CC[C@]12C [Celastrol]
- pIC50 [1]: 4.25
- pIC50 [2]: 4.54
- pIC50 [3]: 4.49
- pIC50 [4]: 5.17
- pIC50 [5]: 4.48

Structure (SMILES): CC(=O)Oc1c2c(c(CC=C(C)C)c3c1C(=O)C1=C[C@@H]4CC5C(C)(C)OC(C/C=C(\C)C(=O)O)(C4=O)[C@@]15O3)OC(C)(CCC=C(C)C)C=C2 (stereo not given in full)
- pIC50 [1]: 4.44
- pIC50 [2]: 4.74
- pIC50 [3]: 4.81
- pIC50 [4]: 5.27
- pIC50 [5]: 4.95

Structure (SMILES): CC(=O)ON=C1C(=O)N(Cc2cc(Cl)ccc2Cl)c2ccc(Cl)cc21 [5-Chloro-1-[(2,5-dichlorophenyl)methyl]-1H-indole-2,3-dione 3-(O-acetyloxime)]
- pIC50 [1]: 4.79
- pIC50 [3]: 4.85

Structure (SMILES): CO[C@H]1/C=C/O[C@@]2(C)Oc3c(C)c(O)c4c(c3C2=O)C(=O)/C(=C/NN2CCN(C)CC2)C(=C4O)NC(=O)/C(C)=C\C=C\[C@H](C)[C@H](O)[C@@H](C)[C@@H](O)[C@@H](C)[C@H](OC(C)=O)[C@@H]1C [Rifampicin]
- pIC50 [1]: 4.20
- pIC50 [2]: 4.67
- pIC50 [3]: 4.61
- pIC50 [4]: 4.71
- pIC50 [5]: 4.34
